{
  "source": "patent US20040106150A1",
  "about": "“Inverse labeling method for the rapid identification of marker/target proteins” (priority 2000, published 2004)",
  "key": {"tumor tissue DU145": {"system": "tumor tissue DU145", "assay": "Inverse labeling-MS phosphorylation analysis of tissue lysate of mouse tumor xenograft (tumor tissue DU145), in vivo study", "design": "Change (treated/control), % down: concentration or dose not given beside the values", "conditions": "for Change (treated/control) / Change (treated/control), % down: tumor tissue, 1 hour treatment", "protocol": "The phosphoproteome mapping method is further tested/applied to an in vivo study of the Raf inhibitor, BPMI (1-hour treatment) in the analysis of tissue lysate of mouse tumor xenograft. […] Although the usual 1 mg of lysate is processed and IMAC enriched, considering the overwhelming blood protein contamination, the actual amount of tissue lysate proteins in the sample is a lot less. For that reason, only 0.05% β-casein is spiked into each tissue lysate sample as internal standard. The methyl esterification/IMAC procedure is successful in removing the blood contamination from the tissue samples. As shown in FIG. 15 (B), inverse labeling-MS analysis after IMAC enrichment clearly detects the down-regulation of Ser^25 phosphorylation of oncoprotein 18, confirming the finding of the cellular studies. Additional changes in phosphorylation are also detected which includes oncogene EMS1, mouse fetuin and Epithelial-cadherin (see Table 3)."}, "HCT116 cells": {"system": "HCT116 cells", "assay": "Inverse labeling-MS phosphorylation analysis of HCT116 cell lysate treated with Raf inhibitor", "type": "cell-based, Human", "conditions": "for Change (treated/control) / Change (treated/control), % down: HCT116 cells, 20 μM, 1.5 hours vs DMSO control", "protocol": "Human colorectal cell line HCT116 cells are grown in 6-well plates. Prior to harvesting, the cells are treated with 20 μM of the Raf inhibitor BPMI and DMSO control for 1.5 hours, respectively. Cells are then rinsed with PBS, and lysed for 5 mintues at 4° C. in Doriano lysis buffer with 100 μg/mL Perfabloc/2 μg/mL aprotinin/2 μg/mL leupeptin/1 mM NaVO4/10 mM NaF. The supernatant of the lysates are collected after centrifugation at 3,000 rpm for 5 minutes. The protein concentration is determined using Bio-Rad reagent, and the lysates are frozen at −80° C. prior to further processing and analysis.\nOne μL of RNase A (20 mg/mL, Sigma, St Louis, Mo.) and 1 μL of RNase T1 (10 units/mL, Invitrogen, Carlsbad, Calif.) are added to each 1 mL of lysates (total 3 mg of HCT116-DMSO control and 3 mg of HCT116-BPMI, respectively), and incubated at 37° C. for half an hour to degrade RNAs. Proteins are denatured using 6 M guanidine HCl, followed by reduction with 20 mM 1,4-dithio-DL-threitol (DTT) at 58° C. for 40 minutes and alkylation with 40 mM iodoacetamide at room temperature for 30 minutes in the dark. Each protein solution is transferred to a Slide-A-Lyzer ( 10,000 MW cutoff, Pierce, Rockford, Ill.) dialysis cassette and dialyzed against 2 to 0 M urea/50 mM ammonium bicarbonate to remove small molecule impurities and buffer exchange to 50 mM ammonium bicarbonate. Proteolysis is carried out using modified, sequencing grade trypsin (Promega, Madison, Wis.) at a 1:200 trypsin-to-protein ratio (wt:wt) in 50 mM ammonium bicarbonate at 37° C. overnight.\nThe peptide digests are filtered through Centricon Filters (10,000 MW cutoff, Millipore, Bedford, Mass.) to remove large molecule impurities including detergents. Flow-through (peptides) is collected. Solvent and ammonium bicarbonate are subsequently removed by SpeedVac drying.\nd0- or d3-methanolic HCl (2 M) (methyl esterification reagent) is prepared by adding 160 μL of acetyl chloride to 1 mL of anhydrous d0-methyl alcohol or d3-methyl d-alcohol drop wise while stirring. After 10 minutes, 1 mL of the methyl esterification reagent is added to 1.5 mg of lyophilized peptide mixture. The reaction is performed in parallel to two identical aliquots for every sample, one using d0-reagent and one using d3-reagent, respectively. The reaction is allowed to proceed at room temperature for 30 minutes. The excess reagents are removed by SpeedVac drying. Subsequently the peptide mixtures are reconstituted with water. The inverse labeling is achieved by mixing d0-control with d3-treated (BPMI) and d3-control with d0-treated.\nEnrichment of phosphopeptides is performed on a 2.1×30 mm IMAC column (POROS 20 MC, Applied Biosystems, Foster City, Calif.). Briefly, the column is washed with water, 100 mM EDTA in 1 M NaCl, followed by water and 1% acetic acid. The column is then activated with 100 mM FeCl3. The SpeedVac dried, 1 mg of the inversely-labeled methyl esterified peptide mixture (500 μg each form of d0 and d3) is dissolved in 1% acetic acid in 50% acetonitrile/water, and loaded onto iron-activated IMAC column. The unbound peptides are removed by washing with 1% acetic acid in 50% acetonitrile/water ([…]). The bound phosphopeptides are eluted with 2% ammonium hydroxide in 50% acetonitrile/water. Acetic acid is added to neutralize the eluent prior to SpeedVac drying. The phosphopeptide mixture is reconstituted with 0.1% formic acid and analyzed using capillary LC/MS, as described below.\nAn Ultimate capillary/nano HPLC system (LC Packings, San Francisco, Calif.) with a Swichos micro column-switching module (LC Packings, San Francisco, Calif.) is used for analysis. Separation is carried out on a 0.18×50 mm capillary column, packed with 3 μm C18 stationary phase of 300-Å pore size (PepMap, LC Packings, San Francisco, Calif.), operating at a flow rate of 2 μL/min. Mobile phase A consists of 0.1% (v/v) formic acid in water and mobile phase B of 0. 1% (v/v) formic acid in acetonitrile. […]"}, "[1]": {"conditions": "phosphopeptide ASGQAFELILpSPR, Oncoprotein 18"}, "[2]": {"conditions": "phosphopeptide LPpSSPVYEDAASFK, Oncogene EMS1"}, "[3]": {"conditions": "phosphopeptide MRDWVIPPIpSCPENEK, Epithelial-cadherin (mouse/human)"}, "[4]": {"conditions": "phosphopeptide SKESVPEFPLpSPPK, Oncoprotein 18"}, "[5]": {"conditions": "phosphopeptide VoxMHTQCHSTPDpSAEDVR, Mouse fetuin"}, "[6]": {"conditions": "phosphopeptide pTQTPPVpSPAPQPTEER, Oncogene EMS1"}, "[7]": {"conditions": "phosphopeptide IEpSPKLER, Heat-shock 110 kD protein"}, "[8]": {"conditions": "phosphopeptide RLpSPSApSPPR, Ser/Arg-related nuclear matrix protein"}},
  "note": "“Also recorded” adds a separate entry of the source.",
  "data": [
    {"smiles": "CC(C)(C)c1ccc(Nc2ncc(Cc3ccncc3)c3ccccc23)cc1", "note": "[BPMI, 1-(4-t-butylanilino)-4-[(pyridin-4-yl)-methyl]-isoquinoline]", "values": [
      {"measurement": "Ser25 phosphorylation of oncoprotein 18 (OP18)", "setting": "tumor tissue DU145; in vivo, tumor tissue DU145, 1-hour treatment", "result": "down-regulation"},
      {"measurement": "Change (treated/control)", "setting": "tumor tissue DU145; [1]", "result": 0.4},
      {"measurement": "Change (treated/control), % down", "setting": "tumor tissue DU145; [1]", "result": 60, "unit": "%"},
      {"measurement": "Change (treated/control)", "setting": "tumor tissue DU145; [2]", "result": 0.7},
      {"measurement": "Change (treated/control), % down", "setting": "tumor tissue DU145; [2]", "result": 30, "unit": "%"},
      {"measurement": "Change (treated/control)", "setting": "tumor tissue DU145; [3]", "result": 0.5},
      {"measurement": "Change (treated/control), % down", "setting": "tumor tissue DU145; [3]", "result": 50, "unit": "%"},
      {"measurement": "Change (treated/control)", "setting": "tumor tissue DU145; [4]", "result": 0.8},
      {"measurement": "Change (treated/control), % down", "setting": "tumor tissue DU145; [4]", "result": 20, "unit": "%"},
      {"measurement": "Change (treated/control)", "setting": "tumor tissue DU145; [5]", "result": 0.6},
      {"measurement": "Change (treated/control), % down", "setting": "tumor tissue DU145; [5]", "result": 40, "unit": "%"},
      {"measurement": "Change (treated/control)", "setting": "tumor tissue DU145; [6]", "result": 0.6},
      {"measurement": "Change (treated/control), % down", "setting": "tumor tissue DU145; [6]", "result": 40, "unit": "%"},
      {"measurement": "OP18 (oncoprotein 18) Ser25 phosphorylation", "setting": "HCT116 cells; HCT116 cell lysate, treated vs control", "result": "significantly down-regulated; also recorded: Down-regulation"},
      {"measurement": "Change (treated/control)", "setting": "HCT116 cells; [1]", "result": 0.4},
      {"measurement": "Change (treated/control), % down", "setting": "HCT116 cells; [1]", "result": 60, "unit": "%"},
      {"measurement": "Change (treated/control)", "setting": "HCT116 cells; [7]", "result": 0.7},
      {"measurement": "Change (treated/control), % down", "setting": "HCT116 cells; [7]", "result": 30, "unit": "%"},
      {"measurement": "Change (treated/control)", "setting": "HCT116 cells; [2]", "result": 0.8},
      {"measurement": "Change (treated/control), % down", "setting": "HCT116 cells; [2]", "result": 20, "unit": "%"},
      {"measurement": "Change (treated/control)", "setting": "HCT116 cells; [8]", "result": 0.7},
      {"measurement": "Change (treated/control), % down", "setting": "HCT116 cells; [8]", "result": 30, "unit": "%"},
      {"measurement": "Change (treated/control)", "setting": "HCT116 cells; [4]", "result": 0.6},
      {"measurement": "Change (treated/control), % down", "setting": "HCT116 cells; [4]", "result": 40, "unit": "%"},
      {"measurement": "Change (treated/control)", "setting": "HCT116 cells; [6]", "result": 0.8},
      {"measurement": "Change (treated/control), % down", "setting": "HCT116 cells; [6]", "result": 20, "unit": "%"}
    ]}
  ]
}
